Measured values published in patent publication US10240216B2 (priority 2013, dated 2019).

Legend:
Magnaporthe oryzae = assay type: cell-based; conditions: at 25 μg/mL
[1] = test system: a number of bacteria and fungi; conditions: concentration of 1 mg/ml; cited from earlier work
human neutrophils = conditions: cited from earlier work
Paealomyces variotii = assay type: cell-based
HeLaS3 cells = conditions: 50 μg/mL, 72 h
Bacillus brevis = assay type: cell-based
Mucor miehei = assay type: cell-based
a number of bacteria = conditions: concentration of 64 µg/mL; cited from earlier work

Molecule: Cc1ccc2c(c1/C=C/C=C/C(=O)O)C(C)CC(C)C2O (stereo not shown) [arohynapene A]
- inhibition of the spore germination of Magnaporthe oryzae (Magnaporthe oryzae): 100%
- antimicrobial activity in vitro against a number of bacteria and fungi [1]: no antimicrobial activity

Molecule: CC1Cc2ccc(CO)c(/C=C/C=C/C(=O)O)c2C(C)C1 (stereo not shown) [arohynapene B]
- inhibition of the spore germination of Magnaporthe oryzae (Magnaporthe oryzae): 100%
- antimicrobial activity in vitro against a number of bacteria and fungi [1]: no antimicrobial activity

Molecule: Cc1ccc2c(c1/C=C/C=C/C(=O)O)[C@H](C)C[C@H](C)C2 [tanzawaic acid A]
- inhibition of superoxide anion production in human neutrophils (human neutrophils): inhibit superoxide anion production
- activity in agar diffusion assay against Paealomyces variotii (Paealomyces variotii): slight activity
- cytotoxic effects against HeLaS3 cells (HeLaS3 cells): cytotoxic effects
- activity in agar diffusion assay against Bacillus brevis (Bacillus brevis): slight activity
- activity in agar diffusion assay against Mucor miehei (Mucor miehei): slight activity

Molecule: C[C@@H]1C[C@@](C)(O)Cc2ccc(CO)c(/C=C/C=C/C(=O)O)c21 [tanzawaic acid G, Tanzawaic acids G and H]
- activity against a number of bacteria (a number of bacteria): neither tanzawaic acids G nor H were found to be active

Molecule: Tanzawaic acids A, B, C and D [tanzawaic acid B]
- inhibition of superoxide anion production in human neutrophils (human neutrophils): inhibit superoxide anion production

Molecule: arohynapene D
- antimicrobial activity in vitro against a number of bacteria and fungi [1]: no antimicrobial activity

Molecule: hynapenes A, B and C [hynapene A]
- antimicrobial activity in vitro against a number of bacteria and fungi [1]: show antimicrobial activity
